Reference: the supplement of paper PMC10307832

Compound: CC1=CC(=C(N1C2=CC=C(C=C2)Cl)C)C(=O)CN3CCCCC3 [IU1-47] + CC1(C)CCC(c2ccc(Cl)cc2)=C(CN2CCN(c3ccc(C(=O)NS(=O)(=O)c4ccc(N[C@H](CCN5CCOCC5)CSc5ccccc5)c(S(=O)(=O)C(F)(F)F)c4)cc3)CC2)C1 [Navitoclax] (partner 0.5 µM)
Assay: relative viability (nuclei count vs DMSO), 5 days (fraction); higher = more cells survive
Conditions: first compound 0.08 µM
In short: (§1)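 Relative viability equals treated-well nuclei counts divided by vehicle-well nuclei counts. Counts came from 4× images of lung cancer cell lines grown in 1536-well plates for 5 days after pin-tool dosing on the day after seeding. Dosing used one drug alone or a fixed anchor-drug dose plus five library-drug doses (not always all listed) in √10 steps, and values are medians of duplicate plates.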

Cell Line	relative viability
COR-L 105	0.896
LOU-NH91	0.772
ChaGo-K-1	1.15
NCI-H2170	0.74
NCI-H2405	1.02
HOP-62	1.05
LU99A	0.824
BEN	0.073
HARA	1.16
HCC-78	0.906
NCI-H322M	1.31
LCLC-97TM1	0.526
NCI-H2009	1.23
A-427	1.04
NCI-H441	0.574
NCI-H1734	0.943
NCI-H460	1.3
NCI-H2347	0.964
SK-LU-1	0.853
NCI-H1395	1.03
201T	1.23
NCI-H1915	0.822
HCC-827	1.06
LXF-289	0.993
NCI-H23	0.791
NCI-H647	1.31
CAL-12T	1.29
NCI-H1651	1.25

Same assay, conditions: first compound 0.253 µM

Cell Line	relative viability
COR-L 105	0.809
LOU-NH91	0.687
ChaGo-K-1	1.15
NCI-H2170	0.734
NCI-H2405	0.902
HOP-62	0.962
LU99A	0.815
BEN	0.0735
HARA	1.19
HCC-78	0.866
NCI-H322M	1.21
LCLC-97TM1	0.502
NCI-H2009	1.2
A-427	0.993
NCI-H441	0.497
NCI-H1734	0.873
NCI-H460	1.08
NCI-H2347	0.888
SK-LU-1	0.855
NCI-H1395	1.07
201T	1.2
NCI-H1915	0.805
HCC-827	1.08
LXF-289	1
NCI-H23	0.903
NCI-H647	1.3
CAL-12T	1.32
NCI-H1651	1.13

Same assay, conditions: first compound 0.8 µM

Cell Line	relative viability
COR-L 105	0.865
LOU-NH91	0.638
ChaGo-K-1	0.895
NCI-H2170	0.684
NCI-H2405	0.862
HOP-62	1.12
LU99A	0.974
BEN	0.0687
HARA	1.19
HCC-78	0.819
NCI-H322M	1.1
LCLC-97TM1	0.517
NCI-H2009	1.16
A-427	1.04
NCI-H441	0.655
NCI-H1734	0.823
NCI-H460	1.36
NCI-H2347	0.912
SK-LU-1	0.819
NCI-H1395	1.14
201T	1.21
NCI-H1915	0.828
HCC-827	1.01
LXF-289	0.985
NCI-H23	0.987
NCI-H647	1.19
CAL-12T	1.24
NCI-H1651	1.16

Same assay, conditions: first compound 2.53 µM

Cell Line	relative viability
COR-L 105	0.81
LOU-NH91	0.609
ChaGo-K-1	0.889
NCI-H2170	0.525
HOP-62	0.897
LU99A	0.937
BEN	0.0707
HARA	1.2
HCC-78	0.578
NCI-H322M	1.27
NCI-H2009	1.14
NCI-H441	0.684
NCI-H460	1.02
NCI-H2347	0.874
SK-LU-1	0.839
HCC-827	1.02
LXF-289	0.92
NCI-H23	0.925
NCI-H647	1.26
CAL-12T	1.24

Same assay, conditions: first compound 8 µM

Cell Line	relative viability
COR-L 105	0.68
LOU-NH91	0.652
ChaGo-K-1	0.625
NCI-H2170	0.577
NCI-H2405	0.897
HOP-62	1.21
LU99A	0.75
BEN	0.0719
HARA	0.998
HCC-78	0.747
NCI-H322M	1.23
LCLC-97TM1	0.404
NCI-H2009	1.18
A-427	0.926
NCI-H441	0.548
NCI-H1734	0.734
NCI-H460	1.38
NCI-H2347	0.802
SK-LU-1	0.847
NCI-H1395	1.15
201T	1.22
NCI-H1915	0.833
HCC-827	0.995
LXF-289	0.975
NCI-H23	0.716
NCI-H647	1.04
CAL-12T	1.38
NCI-H1651	1.12

Compound: Cc1nc(C(=O)NCC(=O)O)c(O)c2ccc(Oc3ccccc3)cc12 [FG-4592] + Nc1nc2[nH]cc(CCc3ccc(C(=O)N[C@@H](CCC(=O)O)C(=O)O)cc3)c2c(=O)[nH]1 [Pemetrexed] (partner 0.2 µM)
Assay: as above
Conditions: first compound 0.08 µM
In short: as §1

Cell Line	relative viability
COR-L 105	1.03
LOU-NH91	0.465
